Series [1] relates to Caco-2 epithelial membrane. The experiment in a line: Permeability of G-2MePE and TEER across Caco-2 cells with permeation enhancers. Type of series: in vitro ADME, human. The procedure:
The purpose of this study was to determine if permeability enhancers can increase transport of G-2MePE across Caco-2 cell layers.
G-2MePE was added in three or six replicates to the donor sides of Transwells containing Caco-2 cells in the absence or presence of various permeation enhancers (FIG. 4), 1.5 ml transport buffer was added to the receptor side. The Transwells were then left to incubate. […] After each sample was taken, 0.4 ml of fresh HBSS buffer was added to the side of the Transwell from which sample was taken. Subsequently, 0.1 ml donor solution was collected to measure the concentration of the intact G-2MePE. Following each sampling, 0.1 ml of G-2MePE at the same concentration was replaced.
Peptidolysis was terminated by adding the same volume of HCl (0.2M) to each sample. […] Supernatants were collected, dried by Speed Vacuum, diluted with mobile phase and analysed by spectrofluorophotometer. […] Transepthelial electric resistance (TEER) was measured using a Millipore voltage meter at different time points.

Series [2] relates to Caco-2 epithelial cell layer. Kind of series: Permeability of fluorescein and TEER across Caco-2 cells with permeation enhancers. Format: in vitro ADME, human. The procedure: The purpose of this study was to determine the appearance permeation coefficient (Papp) and transepithelial electrical resistance (TEER) across confluent cultures of Caco-2 epithelial cells caused by a typical hydrophilic material.
Integrity of Caco-2 cell cultures was assessed by measuring the TEER and the leakage of ^14C-mannitol or fluorescein across confluent cultures. Inserts with confluent cell cultures and an electrical resistance of greater than 300 Ω/cm^2, were considered appropriate for these studies. Fluorescein or 0.5 μCi/50 μl of ^14C-mannitol was added to the apical cell and incubated for 1-4 hours. The acceptable leakage was considered to be <0.5-1%. 6 inserts with good integrity were chosen and then washed with transport buffer. The medium from all apical and basolateral wells was removed. The cell cultures were washed twice with warm 37° C. transport buffer.
The solution on the transwell receptor side was then replaced with 0.4 ml of fresh HBSS, and we collected 0.1 ml from the donor side (then replaced with 0.1 ml sodium fluorescein at the same concentration). The reaction was terminated from donor side by adding the same volume HCl (0.2M) or by 3:1 Acetonitril/methonal with 2% acetic acid to each sample. […] Supernatants were collected, dried by Speed Vacuum, diluted with mobile phase and the resulting sample was analysed by spectrofluorophotometer. The apparent permeability coefficient was used to compare the permeability between control and treatment groups (FIG. 4). Transepithelial electric resistance (TEER) was measured using a Millipore voltage meter at different time points.
A general note: Passage across Caco-2 layers is used to estimate intestinal permeability.

Series [3] deals with Caco-2 cells. Format: in vitro ADME, human. The procedure:
The purpose of these studies was to determine the effect of pH on the degradation of G-2MePE by Caco-2 cells.
100 μg/ml G-2MePE was added to the apical side of confluent cultures of Caco-2 cells in different pH conditions. Samples were taken at 0, 15, 30, 45, 60, 90, 120, 150, 180, 210, 240 min later. Samples were centrifuged at 20,000 g for 15 min and 50 μl supernatant was injected to the column of HPLC. […] Peptidolytic activity and half-life of G-2MePE were then determined in different pH condition.

Series [4] has as its system Caco-2 cells. Format: in vitro ADME, human. The conditions noted are these: Caco-2, pH 7.4. As to the method:
Fresh medium was replaced every 2-3 days. Cells were cultured at 37° C. for 12-14 days for uptake assay study. The uptake assay study was commenced after cells reached confluency, i.e., after 12-14 days in culture. Each dish was washed with HEPES (pH 7.4). […] The cells were scraped off with a cell scraper into an extraction solution and centrifuged at 20,000 g for 20 min. […] The pellet was diluted by NaOH to determine the protein content by Lowry assay.

For series [5], the system named is Caco-2 cells. The experiment in a line: Cytotoxicity: sulforhodamine B (SRB) growth inhibition of Caco-2 cells. The note with it: read-out: IC50 of G-2MePE, growth of Caco-2 cells.
Protocol: (§1) The purpose of this study growth was to determine if GPE and/or G-2MePE can inhibit growth of cells.
(§2) The cells were fixed by TCA and SRB was added to each well. Cell-bound dye was extracted with Tris base buffer to solubilize the dye and the absorbance determined by a plate reader at 570 nm. Inhibition of growth was expressed as relative viability (% control) and the IC50 was calculated from the concentration-response curves after log/probit transformation.
For another series, the system named is Caco-2 cell monolayer. Kind of series: Stability of GPE and G-2MePE in the presence of Caco-2 cells. The conditions noted are these: 50-100 μg/ml, HBSS pH 7.4, HPLC. Format: in vitro ADME, human. As to the method: The collected samples were extracted by adding 400 μl of 0.04M sulphuric acid into test tubes, each of which contained 50 μl of a sample. The test tubes were left on ice for 5 min and vortexed. The 50 μl of 10% sodium tungstate was added to each tube and the tubes were vortexed immediately and left on ice for 10 min, vortexed again and left on ice for another 10 min. The cells were centrifuged at 20,000 g at 4° C. for 20 min. The supernatant was collected for testing. […] The protein content of samples was measured by Lowry assay.

Another series is described as follows: in vitro. The conditions noted are these: human, Caco-2.
The test system of series [6] is Caco-2 cells.
Protocol: as §1, §2

Molecules are shown by their SMILES. Read-outs that look alike come from different tables or passages of the source. Bridge positions count the residues as written; N and C are the ends. Square brackets hold non-standard residues; d marks the D form. Peptide text beside a SMILES is read from it. * marks the point of attachment. Ileψ(thiazoline)Cys = CC[C@H](C)[C@H](N)C1=N[C@H](C(=O)*)CS1; αMeP = C[C@@]1(C(=O)O)CCCN1; dOrn = NCCC[C@@H](N)C(=O)O

Protocol for in vitro: as §1, §2

As for `CCCCCCCCCC(=O)[O-].[Na+]` [Sodium caprate], the “permeability of the Caco-2 epithelial membrane to G-2MePE” value in series [1] (EDTA 30 mM, sodium caprate 20 mM, taurocholate 20 and 30 mM, citric acid 30 mM, bacitracin 3.5 mM) is reported as “significantly increased”. Also, the “TEER of Caco-2 cell layer” value in series [1] (G-2MePE transport, EDTA 30 mM, sodium caprate 20 mM, taurocholate 20 & 30 mM, citric acid 30 mM) is recorded as “significantly reduced”; in series [2] (fluorescein transport experiment, 3 h, sodium caprate 10 or 20 mM, taurocholate 30 mM, EDTA 40 mM, SDA 1 mM), “reduced the TEER”. For the same molecule, the “relative effect on fluorescein permeability” value in series [2] (20 mM caprate vs 20 mM taurocholate) was “greater than the effect of the same concentration of taurocholate”. Also, in series [2] (sodium caprate 10 or 20 mM, taurocholate 30 mM, EDTA 40 mM, SDA 1 mM, 3 h), the “permeability of the Caco-2 epithelial cell layer to fluorescein” value is on record as “significantly (P<0.05) increased”.

For the molecule `C[C@@]1(C(=O)N[C@@H](CCC(=O)O)C(=O)O)CCCN1C(=O)CN` [Formulation G-2MePE, Glycyl-2-Methylprolyl Glutamate] (H-Gly-[αMeP]-Glu-OH), the “pH at which G-2MePE is stable” value in the series with Caco-2 cells [3] (Caco-2) was at most 5.5. In addition, the “degradation in basic conditions” value in the series with Caco-2 cells [3] (Caco-2, pH 7) is reported as “Moderate degradation”. For the same molecule, the “uptake of G-2MePE by Caco-2 cells” value in the series on Caco-2 cells [4] is reported as 1.3%. Also, the IC50 (as a rule, the concentration that gives 50% inhibition) with Caco-2 cells [5] (24 hours) turned out to be 4640 µM; in the series on Caco-2 cells [5] (48 hours), 3660 µM; with Caco-2 cells [5] (72 hours), 2240 µM; in the series with Caco-2 cells [5] (96 hours), 1090 µM; with Caco-2 cells [5] (120 hours), 1010 µM.

For `NCC(=O)N1CCC[C@H]1C(=O)N[C@@H](CCC(=O)O)C(=O)O` [GPE, glycyl-prolyl-glutarnate], the “metabolites identified in the presence of Caco-2 cells” value in the series with Caco-2 cell monolayer is “Four”. Further, the inhibition – broadly, the share of the control response that was lost under treatment – at 15 mM in “in vitro” was found to be 35%. This molecule also came in with a 50% inhibitory concentration (IC50) in the series on Caco-2 cells [6] of at least 15000 µM.

Turning to `CC[C@H](C)[C@H](N)C1=N[C@H](C(=O)N[C@@H](CC(C)C)C(=O)N[C@H](CCC(=O)O)C(=O)N[C@H](C(=O)N[C@H]2CCCCNC(=O)[C@H](CC(N)=O)NC(=O)[C@@H](CC(=O)O)NC(=O)[C@H](Cc3cnc[nH]3)NC(=O)[C@@H](Cc3ccccc3)NC(=O)[C@H]([C@@H](C)CC)NC(=O)[C@@H](CCCN)NC2=O)[C@@H](C)CC)CS1` [bacitracin] ({Ileψ(thiazoline)Cys}-L[dE]IK[dOrn]I[dF]H[dD]N; lactam 4-C), the “permeability of the Caco-2 epithelial membrane to G-2MePE” value in series [1] (Caco-2) is recorded as “significantly increased”.

The values are drawn from patent US8496963B2, “Oral formulations of glycyl-2-methylprolyl-glutamate” (priority 2007, dated 2013).
